Assay results taken from US5066658A, “Substituted hydroxyureas” (Ortho Pharmaceutical Corporation, priority 1990, dated 1991).

Experiments:
[1] = molecular target: T1, 5-lipoxygenase (Rattus norvegicus, UniProt P12527); assay: Inhibition of 5-lipoxygenase in cell-free homogenate of rat basophilic leukemia (RBL-1) cells; format: biochemical; conditions: 3 μM; RBL-1 cell-free homogenate; read-out: Inhibition of 5-Lipoxygenase, % Inh. @ 3 μM
T1 construct: The cell-free homogenate was prepared by sonication of the cells followed by centrifugation at 40,000 xg; endogenous in cells; host or cells: RBL-1 (rat basophilic leukemia) cells, 40,000 xg supernatant of the sonicate
T1 sequence (P12527 1-673): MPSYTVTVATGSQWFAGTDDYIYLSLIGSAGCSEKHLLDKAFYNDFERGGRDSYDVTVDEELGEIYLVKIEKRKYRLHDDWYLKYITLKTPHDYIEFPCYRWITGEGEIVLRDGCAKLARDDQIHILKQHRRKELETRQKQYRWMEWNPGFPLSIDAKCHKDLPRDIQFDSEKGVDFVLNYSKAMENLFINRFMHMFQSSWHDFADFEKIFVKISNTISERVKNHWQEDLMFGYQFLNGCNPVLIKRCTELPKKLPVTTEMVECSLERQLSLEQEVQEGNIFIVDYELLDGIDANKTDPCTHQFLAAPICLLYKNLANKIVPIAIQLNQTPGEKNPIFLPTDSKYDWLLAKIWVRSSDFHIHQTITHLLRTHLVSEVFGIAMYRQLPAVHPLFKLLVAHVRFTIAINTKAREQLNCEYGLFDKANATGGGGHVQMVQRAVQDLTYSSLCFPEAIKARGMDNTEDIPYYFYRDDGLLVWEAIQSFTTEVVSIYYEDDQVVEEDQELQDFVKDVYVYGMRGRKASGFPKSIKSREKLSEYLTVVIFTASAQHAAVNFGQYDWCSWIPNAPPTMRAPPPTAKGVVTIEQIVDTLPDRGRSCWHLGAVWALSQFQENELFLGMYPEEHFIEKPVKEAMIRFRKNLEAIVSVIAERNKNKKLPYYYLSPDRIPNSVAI
Method: The inhibition of 5-lipoxygenase was tested in a cell-free homogenate by the procedure of B. Jakschik et al., Biochem.Biophys.Res.Comm. 95, 103 (1980). Basically, rat basophilic leukemia cells (RBL-1 cells) were maintained in culture in a suitable medium, and were collected by centrifugation prior to assay. The cell-free homogenate was prepared by sonication of the cells followed by centrifugation at 40,000 xg. The CaCl2 dependent production of lipoxygenase products from ^14 C-arachidonic acid in the 40,000 xg supernatant was monitored in the presence of buffer (or other vehicle) or drug. Products were isolated by acidification and extraction, followed by thin layer chromatography. Radioactive areas corresponding to the authentic lipoxygenase products were quantitated by liquid scintillation counting. Data was reported as the IC50, the concentration causing 50% inhibition of the generation of lipoxygenase products. The results are shown it Table I as the percent inhibition at 3 μM or the amount of compound necessary to cause 50% inhibition.

[2] = test system: Arachidonate-Induced Bronchospasm (cyclooxygenase); assay: Pulmonary Mechanics Assay: arachidonate-induced bronchospasm without indomethacin (indicative of cyclooxygenase inhibition); format: in vivo, male Hartley guinea pigs; conditions: Cavia porcellus, guinea pig; for inhibition in vivo at 50 mg/kg: ID dosing, read-out: Inhibition of Arachidonate-Induced Bronchospasm (ID Dosing), % Inh. without Indomethacin; for inhibition in vivo at 15 mg/kg: IV dosing, read-out: Inhibition of Arachidonate-Induced Bronchospasm (IV Dosing), % Inh. without Indomethacin
Method: (§1) The bronchodilating activity of the compounds was tested in a pulmonary mechanics assay. Basically, male Hartley guinea pigs (about 400-500 g) were anesthetized with urethane (2 g/kg, i.p.) and placed in a whole body Plethysmograph. Cannulations of a jugular vein and carotid artery were performed for compound administration and monitoring blood pressure, respectively. The trachea was cannulated for respiration at a constate volume via a miniature starling pump. A Validyne differential pressure transducer (±20 cm H2 O) sensed transpleural pressure via a 15 gauge needle inserted into the pleural cavity and a sidearm from the tracheal cannula. Tidal volume was sensed by another Validyne differential pressure transducer (±2 cm H2 O) from pressure changes inside the plethysmograph. An on-line Buxco pulmonary mechanics computer calculated air flow, dynamic lung compliance and lung resistance. The values were recorded on a print-out.
(§2) The guinea pigs were pretreated with succinyl choline (1.2 mg/kg, i.v.) to arrest spontaneous respiration. A control challenge of arachidonic acid (0.5-1.0 mg/kg, i.v.) was administered, and the animals were then dosed with the test compound by various routes. At least 10 minutes were allowed to expire between arachidonic acid challenges. A second challenge was given and compared to the control response. This comparison was indicative of cyclooxygenase inhibition. Indomethacin (10 mg/kg, i.v.) was administered immediately after the second challenge. A third challenge of a higher dose of arachidonic acid (5-10 mg/kg, i.v.) was given. This response was induced by SRS-A and compared to the responses elicited by a separate control group of animals. Activity was indicative of lipoxygenase inhibition. Propranolol (0.005 mg/kg. i.v.) may be given prior to the third challenge to enhance the response to SRS-A.
(§3) Bronchoconstriction induced by arachidonic acid with or without indomethacin was expressed as maximum percent change in dynamic lung compliance (Cdyn) and maximum percent increase in lung resistance (RL). Each guinea pig served as its own control for cyclooxygenase evaluation. The results are shown in Table I and are expressed as the percent inhibition of control.

[3] = test system: Arachidonate-Induced Bronchospasm (lipoxygenase); assay: Pulmonary Mechanics Assay: arachidonate-induced bronchospasm with indomethacin (SRS-A response, indicative of lipoxygenase inhibition); format: in vivo, male Hartley guinea pigs; conditions: Cavia porcellus, guinea pig; for inhibition in vivo at 50 mg/kg: ID dosing, read-out: Inhibition of Arachidonate-Induced Bronchospasm (ID Dosing), % Inh. with Indomethacin; for inhibition in vivo at 15 mg/kg: IV dosing, read-out: Inhibition of Arachidonate-Induced Bronchospasm (IV Dosing), % Inh. with Indomethacin
Method: as §1, §2, §3

inhibition at 3 µM [1] [%]	SMILES	inhibition in vivo at 50 mg/kg [2] [%]	inhibition in vivo at 15 mg/kg [2] [%]	inhibition in vivo at 50 mg/kg [3] [%]	inhibition in vivo at 15 mg/kg [3] [%]
28	COc1ccc([C@@H]2C[C@H]2NC(=O)N(C)O)cc1OC (relative stereo) [Example 66, N-[Trans-2-(3,4-dimethoxyphenyl)cyclopropyl]-N'-hydroxy-N'-methylurea]	43	61	45	90
100	CCCCCCN(O)C(=O)N(C)C [Example 10, N,N-Dimethyl-N'-hexyl-N'-hydroxyurea]				
94	C=CCCCCCCCCNC(=O)N(C)O [Example 18, N-(9-Decenyl)-N'-methyl-N'-hydroxyurea]				
22	C=CCCCCCCCCC(O)CNC(=O)N(C)O (centres unmarked) [Example 21, N-(2-Hydroxy-11-dodecenyl)-N'-methyl-N'-hydroxyurea]				
71	CCCCC/C=C\C/C=C\C/C=C\C/C=C\CCCNC(=O)N(C)O [Example 22, N-(4,7,10,13-Nonadecatetraenyl)-N'-methyl-N'-hydroxyurea]				
30	CCCCCCCCCCC1CN(C)C(=O)N(O)C1 (centres unmarked) [Example 29, 5-Decyl-1-hydroxy-3-methyl-3,4,5,6-tetrahydro-lH-pyrimidin-2-one]				
74	CN(O)C(=O)NCc1ccc(-c2ccccc2)cc1 [Example 30, N-([1,1'-Biphenyl]-4-ylmethyl)N'hydroxy-N'methylurea]	< 20		< 20	
71	CN(O)C(=O)NCCCc1ccc(-c2ccccc2)cc1 [Example 32, N-[3-([1,1'-Biphenyl]-4-yl)propyl]-N'-hydroxy-N'-methylurea]	< 20		< 20	
70	CN(O)C(=O)NCCOc1ccc(-c2ccccc2)cc1 [Example 33, N-[2-([1,1'-biphenyl]-4-yloxy)ethyl]N'-hydroxy-N'-methylurea]	< 20		28	
93	CN(O)C(=O)NCCCOc1ccc(-c2ccccc2)cc1 [Example 34, N-[3-([l,l'biphenyl]-4-yloxy)propyl]N'hydroxy N'methylurea]	-74		34	
79	CN(O)C(=O)NCCCCOc1ccc(-c2ccccc2)cc1 [Example 35, N-[4-([1,1'-Biphenyl]-4-yloxy)butyl]N'-hydroxy-N'-methylurea]	< 20		33	
67	CN(O)C(=O)NCCCCCOc1ccc(-c2ccccc2)cc1 [Example 36, N-[5-([l,l'Biphenyl]-4-yloxy)pentyl]N'-hydroxy-N'-methylurea]	< 20		31	
65	CN(O)C(=O)NCCCCCCOc1ccc(-c2ccccc2)cc1 [Example 37, N-[6-([1,1'-Biphenyl]-4-yloxy)hexyl]N'hydroxy-N'-methylurea]	-33		-11	
56	CN(O)C(=O)NCCCCCCCOc1ccc(-c2ccccc2)cc1 [Example 38]	-9		< 20	
95	COc1ccc(CCNC(=O)N(O)C(C)C)cc1OC [Example 41, N-[2-(3,4-Dimethoxyphenyl)ethyl]-N'-hydroxy-N'-(1-methylethyl)urea]	< 20	42	30	70
28	COc1ccc(CNC(=O)N(C)O)cc1OC [Example 42, N-[(3,4-Dimethoxyphenyl)methyl]-N'-hydroxy-N'-methylurea]				
36	COc1cc(CCNC(=O)N(C)O)cc(OC)c1OC [Example 45, N-[2-(3,4,5-Trimethoxyphenyl)ethyl]-N'-hydroxy-N'-methylurea]				
42	CN(O)C(=O)NCCc1ccc2c(c1)OCCO2 [Example 46, N-[2-(Benzo-1,4-dioxan-6-yl)ethyl]-N'-hydroxy-N'-methylurea]				
56	COc1ccc(OC)c(CCNC(=O)N(C)O)c1 [Example 47, N-[2-(2,5-Dimethoxyphenyl)ethyl]-N'-hydroxy-N'-methylurea]				
42	COc1cc(CCNC(=O)N(C)O)cc(OC)c1 [Example 48, N-[2-(3,5-Dimethoxyphenyl)ethyl]-N'-hydroxy-N'-methylurea]				
55	COc1cc2c(cc1OC)CC(NC(=O)N(C)O)C2 [Example 57, N-(5,6-Dimethoxyindan-2-yl)-N'-hydroxy-N'-methylurea]				
39	COc1ccc(C2C3CCC(C3)C2NC(=O)N(C)O)cc1OC (stereo not drawn) [Example 59, N-[trans-3-(3,4-Dimethoxyphenyl)bicyclo[2.2.1]-heptan-2-yl]-N '-hydroxy-N'-methylurea]				
33	COc1ccc(CCN(CC(C)C)C(=O)N(C)O)cc1OC [Example 64, N-[2-(3,4-Dimethoxyphenyl)ethyl]-N'-hydroxy-N'-methyl-N-(2-methylpropyl)urea]				
48	COc1ccc(CCN(C(=O)N(C)O)c2ccc(Cl)cc2)cc1OC [Example 67, N-[2-(3,4-Dimethyloxyphenyl)ethyl]-N-(4-chlorophenyl)-N'-methyl-N'-hydroxyurea]				
46	COc1cccc(C2CCCN(C(=O)N(C)O)C2)c1 (centres unmarked) [Example 73, N-Hydroxy-3-(3-methoxyphenyl)-N-methylpiperidine-1-carboxamide]				
42	CCOC(=O)CCCN(O)C(=O)NCCc1ccc(OC)c(OC)c1 [Example 74, N-[2-(3,4-Dimethoxyphenyl)ethyl]-N'-[3-(ethoxycarbonyl)propyl]-N'-hydroxyurea]				
44	CN(O)C(=O)N1CCC(C(c2ccccc2)c2ccccc2)CC1 [Example 75, 4-(Diphenylmethyl)-N-hydroxy-N-methylpiperidine-1-carboxamide]				
66	CN(O)C(=O)NCCc1cccc(Oc2ccccc2)c1 [Example 76, N-Hydroxy-N-methyl-N'-[2-(3-phenoxyphenyl)ethyl]urea]				

SMILES	inhibition at 3 µM [1] [%]	inhibition in vivo at 50 mg/kg [2] [%]	inhibition in vivo at 15 mg/kg [2] [%]	inhibition in vivo at 50 mg/kg [3] [%]	inhibition in vivo at 15 mg/kg [3] [%]
COc1ccc(CC(C)NC(=O)N(C)O)cc1OC (centres unmarked) [Example 54, N-[2-(3,4-Dimethoxyphenyl)-1-methylethyl]-N'-hydroxy-N'-methylurea]	8				
